Active and inactive are the calls of the source. The rule behind the calls is not given here.
Key:
Ileum = experiment: Inhibition of bradykinin-induced Hartley guinea pig ileum contraction at 1 uM relative to control; type: functional; conditions: Cavia porcellus
Rattus norvegicus [1] = experiment: Analgesic activity in S1/S2 spinal nerve ligated rat model of neuropathic pain assessed as suppression of warm water-induced allodynia at 60 mg/kg, ip; type: functional, organism-based; parameters: dose 60 mg/kg
Rattus norvegicus [2] = experiment: Antinociceptive activity against formalin-induced pain in rat assessed as time spent in licking, shaking or biting paw in early phase at 60 ug, sc (Rvb=47.05 +/- 8.53 sec); type: functional
Rattus norvegicus [3] = experiment: Antinociceptive activity against formalin-induced pain in rat assessed as time spent in licking, shaking or biting paw in late phase at 60 ug, sc (Rvb=334.21 +/- 51.10 sec); type: functional
Rattus norvegicus [4] = experiment: Analgesic activity in S1/S2 spinal nerve ligated rat model of neuropathic pain assessed as suppression of mechanical stimuli-induced allodynia at 60 mg/kg, ip; type: functional, organism-based; parameters: dose 60 mg/kg
Rattus norvegicus [5] = experiment: Analgesic activity in S1/S2 spinal nerve ligated rat model of neuropathic pain assessed as suppression of cold water-induced allodynia at 60 mg/kg, ip; type: functional, organism-based; parameters: dose 60 mg/kg

SMILES	inhibition at 1 µM (Ileum) [%]	other results
O=C(/C=C\C(=O)N1CCCN(C(c2ccccc2)c2ccc(Cl)cc2)CC1)NC1CCCCC1 (centres undefined)	66	
CC(CCc1ccccc1)NC(=O)/C=C\C(=O)N1CCN(C(c2ccc(F)cc2)c2ccc(F)cc2)CC1 (centres undefined)	86.6	Activity (Rattus norvegicus [1]): Active; Activity (Rattus norvegicus [2]): 14.82 s; Activity (Rattus norvegicus [3]): 129.31 s; Activity (Rattus norvegicus [4]): inactive; Activity (Rattus norvegicus [5]): Active
Cc1ccc(CNC(=O)/C=C\C(=O)N2CCCN(C(c3ccccc3)c3ccc(Cl)cc3)CC2)cc1 (centres undefined)	79.4	
COc1ccc(CNC(=O)/C=C\C(=O)N2CCCN(C(c3ccccc3)c3ccc(Cl)cc3)CC2)cc1 (centres undefined)	75	
COc1ccc(CNC(=O)/C=C\C(=O)N2CCN(C(c3ccc(F)cc3)c3ccc(F)cc3)CC2)cc1	79.6	
Cc1ccc(CNC(=O)CCC(=O)N2CCCN(C(c3ccccc3)c3ccc(Cl)cc3)CC2)cc1 (centres undefined)	67.7	
Cc1ccc(CNC(=O)CC(C)(C)CC(=O)N2CCN(C(c3ccccc3)c3ccc(Cl)cc3)CC2)cc1 (centres undefined)	32.9	
O=C(CCC(=O)N1CCCN(C(c2ccccc2)c2ccc(Cl)cc2)CC1)NC1CCCCC1 (centres undefined)	71.7	
Cc1ccc(CNC(=O)CC(C)CC(=O)N2CCN(C(c3ccccc3)c3ccc(Cl)cc3)CC2)cc1 (centres undefined)	64.8	
COc1cc(CNC(=O)CCC(=O)N2CCN(C(c3ccccc3)c3ccc(Cl)cc3)CC2)cc(OC)c1OC (centres undefined)	65.2	
COc1ccc(CNC(=O)/C=C\C(=O)N2CCN(C(c3ccccc3)c3ccc(Cl)cc3)CC2)cc1 (centres undefined)	74.1	
COc1cc(CNC(=O)CCC(=O)N2CCCN(C(c3ccccc3)c3ccc(Cl)cc3)CC2)cc(OC)c1OC (centres undefined)	72.6	
COc1cc(CNC(=O)CC(C)CC(=O)N2CCN(C(c3ccccc3)c3ccc(Cl)cc3)CC2)cc(OC)c1OC (centres undefined)	53.1	
COc1ccc(CNC(=O)CC(C)CC(=O)N2CCN(C(c3ccccc3)c3ccc(Cl)cc3)CC2)cc1 (centres undefined)	64.9	
CC(CCc1ccccc1)NC(=O)/C=C\C(=O)N1CCCN(C(c2ccccc2)c2ccc(Cl)cc2)CC1 (centres undefined)	79.7	
O=C(/C=C\C(=O)N1CCN(C(c2ccccc2)c2ccc(Cl)cc2)CC1)NC1CCCCC1 (centres undefined)	57.4	
Cc1ccc(CNC(=O)CC(C)CC(=O)N2CCCN(C(c3ccccc3)c3ccc(Cl)cc3)CC2)cc1 (centres undefined)	81.3	

SMILES	inhibition at 1 µM (Ileum) [%]	other results
CC(C)(CC(=O)NC1CCCCC1)CC(=O)N1CCN(C(c2ccccc2)c2ccc(Cl)cc2)CC1 (centres undefined)	28	
COc1ccc(CNC(=O)CCC(=O)N2CCN(C(c3ccccc3)c3ccc(Cl)cc3)CC2)cc1 (centres undefined)	57.2	
CC(CC(=O)N(C)C)CC(=O)N1CCN(C(c2ccccc2)c2ccc(Cl)cc2)CC1 (centres undefined)	36	
O=C(/C=C\C(=O)N1CCN(C(c2ccc(F)cc2)c2ccc(F)cc2)CC1)NC1CCCCC1	65.4	
CC(CCc1ccccc1)NC(=O)/C=C\C(=O)N1CCN(C(c2ccccc2)c2ccccc2)CC1 (centres undefined)	77.5	
COc1ccc(CNC(=O)CC(C)CC(=O)N2CCCN(C(c3ccccc3)c3ccc(Cl)cc3)CC2)cc1 (centres undefined)	78.3	
N=C(N)NCCC[C@@H](N)C(=O)N[C@@H](CCCNC(=N)N)C(=O)N1CCC[C@H]1C(=O)N1C[C@H](O)C[C@H]1C(=O)NCC(=O)N[C@@H](Cc1cccs1)C(=O)N[C@@H](CO)C(=O)N1Cc2ccccc2C[C@@H]1C(=O)N1[C@H](C(=O)N[C@@H](CCCNC(=N)N)C(=O)O)C[C@@H]2CCCC[C@@H]21 [ICATIBANT]	100	
Cc1ccc(CNC(=O)/C=C\C(=O)N2CCN(C(c3ccc(F)cc3)c3ccc(F)cc3)CC2)cc1	84.5	
CC(CC(=O)NC1CCCCC1)CC(=O)N1CCN(C(c2ccccc2)c2ccc(Cl)cc2)CC1 (centres undefined)	60.8	
COc1cc(CNC(=O)CC(C)CC(=O)N2CCCN(C(c3ccccc3)c3ccc(Cl)cc3)CC2)cc(OC)c1OC (centres undefined)	69.7	
COc1ccc(CNC(=O)CC(C)(C)CC(=O)N2CCN(C(c3ccccc3)c3ccc(Cl)cc3)CC2)cc1 (centres undefined)	31.6	
COc1ccc(CNC(=O)CCC(=O)N2CCCN(C(c3ccccc3)c3ccc(Cl)cc3)CC2)cc1 (centres undefined)	80.9	
COc1cc(CNC(=O)CC(C)(C)CC(=O)N2CCN(C(c3ccccc3)c3ccc(Cl)cc3)CC2)cc(OC)c1OC (centres undefined)	49.1	
Cc1ccc(CNC(=O)/C=C\C(=O)N2CCN(C(c3ccccc3)c3ccc(Cl)cc3)CC2)cc1 (centres undefined)	78.5	
CC(CC(=O)NC1CCCCC1)CC(=O)N1CCCN(C(c2ccccc2)c2ccc(Cl)cc2)CC1 (centres undefined)	80.3	
Cc1ccc(CNC(=O)CCC(=O)N2CCN(C(c3ccccc3)c3ccc(Cl)cc3)CC2)cc1 (centres undefined)	67.9	
O=C(CCC(=O)N1CCN(C(c2ccccc2)c2ccc(Cl)cc2)CC1)NC1CCCCC1 (centres undefined)	79	

— ChEMBL document CHEMBL1157650, “Synthesis and bradykinin inhibitory activity of novel non-peptide compounds, and evaluation of in vivo analgesic activity” (2010)
